Measurements taken from the supplement of paper PMC10307832.

Columns and labels:
Assay in all cases: relative viability (nuclei count vs DMSO), 5 days (fraction); higher = more cells survive
[1] = compound: C[C@@H](N)c1ccc(C(=O)Nc2ccnc3[nH]ccc23)cc1 + CC(C)C[C@H](NC(=O)[C@H](Cc1ccccc1)NC(=O)c1cnccn1)B(O)O [Bortezomib] (partner 0.002 µM)
Method in brief: (§1)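 Each reported value is a median over duplicate plates. It expresses relative viability: treated-well nuclei count divided by vehicle-well nuclei count. Lung cancer cell lines in 1536-well plates were dosed by pin tool a day after seeding, alone with one drug or with a fixed anchor-drug dose plus five library-drug doses (not always all listed) in √10 steps, and nuclei were counted after 5 days.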

Tanzisertib + Crizotinib = compound: O[C@H]1CC[C@H](Nc2ncc3nc(Nc4c(F)cc(F)cc4F)n([C@H]4CCOC4)c3n2)CC1 [Tanzisertib] + C[C@@H](Oc1cc(-c2cnn(C3CCNCC3)c2)cnc1N)c1c(Cl)ccc(F)c1Cl [Crizotinib] (partner 1 µM)
Method in brief: as §1

Tanzisertib + Tozasertib = compound: O[C@H]1CC[C@H](Nc2ncc3nc(Nc4c(F)cc(F)cc4F)n([C@H]4CCOC4)c3n2)CC1 [Tanzisertib] + Cc1cc(Nc2cc(N3CCN(C)CC3)nc(Sc3ccc(NC(=O)C4CC4)cc3)n2)n[nH]1 [Tozasertib] (partner 0.1 µM)
Method in brief: as §1

Tanzisertib + Olaparib = compound: O[C@H]1CC[C@H](Nc2ncc3nc(Nc4c(F)cc(F)cc4F)n([C@H]4CCOC4)c3n2)CC1 [Tanzisertib] + O=C(c1cc(Cc2n[nH]c(=O)c3ccccc23)ccc1F)N1CCN(C(=O)C2CC2)CC1 [Olaparib] (partner 8 µM)
Method in brief: as §1

Cell Line UMC-11 has a relative viability ([1]; first compound 0.04 µM) of 0.669, a relative viability ([1]; first compound 0.1265 µM) of 0.717 and a relative viability ([1]; first compound 0.4 µM) of 0.768. The relative viability ([1]; first compound 1.265 µM) was 0.286, the relative viability ([1]; first compound 4 µM) was 0.415 and the relative viability (Tanzisertib + Crizotinib; first compound 0.08 µM) was 0.654. The relative viability (Tanzisertib + Crizotinib; first compound 0.253 µM) was 0.703, the relative viability (Tanzisertib + Crizotinib; first compound 0.8 µM) was 0.631 and the relative viability (Tanzisertib + Crizotinib; first compound 2.53 µM) was 0.687. It also gave a relative viability (Tanzisertib + Crizotinib; first compound 8 µM) of 0.675, a relative viability (Tanzisertib + Tozasertib; first compound 0.08 µM) of 0.208 and a relative viability (Tanzisertib + Tozasertib; first compound 0.253 µM) of 0.191. It also gave a relative viability (Tanzisertib + Tozasertib; first compound 0.8 µM) of 0.212, a relative viability (Tanzisertib + Tozasertib; first compound 2.53 µM) of 0.215 and a relative viability (Tanzisertib + Tozasertib; first compound 8 µM) of 0.209. It also gave a relative viability (Tanzisertib + Olaparib; first compound 0.08 µM) of 0.355, a relative viability (Tanzisertib + Olaparib; first compound 0.253 µM) of 0.412 and a relative viability (Tanzisertib + Olaparib; first compound 0.8 µM) of 0.411. For the same cell line, the relative viability (Tanzisertib + Olaparib; first compound 2.53 µM) was 0.501 and the relative viability (Tanzisertib + Olaparib; first compound 8 µM) was 0.388.
